These results are taken from US4666915A, “2-anilino-1,6-dihydro-6-oxo-5-pyrimidine-carboxylic acid derivatives, process for the preparation thereof, and antiallergic agent containing the same” (Morishita Pharmaceutical Co. Ltd., priority 1984, dated 1987).

One data set concerns SRS-A. Kind of data set: Anti-SRS-A action, Magnus method using the isolated guinea pig ileum. The note with it: crude SRS-A after 3 minutes; for IC50: read-out: 50% inhibition concentration. The procedure:
The anti-SRS-A activity of the compounds of the present invention was measured by Magnus method using the isolated guinea pig ileum. An extracted ileum of guinea pig was hung within a Magnus vessel which was maintained at 31±1° C. and then pre-treated with mepiramine to remove any effect by histamine. Test compound was administered in a dose of 3×10^-5 to 10^-3 M, and after 3 minutes, a previously prepared crude SRS-A was acted thereto, and then, the shrink rate (%) of the ileum was measured.

Data set [1] can be described thus: Toxicity test in mice (LD50, Litchfield-Wilcoxon method). The note with it: mouse, in vivo, ip; mortality during 7 days; ddY male mice; read-out: 50% lethal dose (LD50). The procedure:
The test compound was suspended in 0.5% carboxymethylcellulose solution, and the suspension was intraperitoneally administered to ddY male mice (weighing 20-25 g, one group: 10 mice). Based on the total mortality during 7 days after the administration of the test compound, the 50% lethal dose (LD50) was calculated by Litchfield-Wilcoxon method. The data of reference (Tranilast) are also shown therein.

Assay in data set [2]: as above
To be noted: mouse, in vivo, po; mortality during 7 days; ddY male mice; read-out: 50% lethal dose (LD50).

Data set [3] concerns passive cutaneous anaphylaxis (PCA). Kind of data set: PCA response in rats. The format is in vivo, Wistar male rats. The note with it: Rattus norvegicus, read-out: 50% inhibiting dose (ED50) in the rat PCA. The protocol:
[1] PCA response in rats:
Wistar male rats weighing 190-220 g were used. A diluted anti-dinitrophenyl-Ascalis (DNP-As) rat serum (each 0.1 ml) was intracutaneously injected into the back of the animals, by which the animals were passively sensitized. After 48 hours, Evans blue liquid (1.0 ml) containing DNP-As (20 mg, as a protein) was intravenously injected to the animals to induce PCA.
After 30 minutes, rats were killed, and the skin at the response region was peeled off, and the amount of color was measured spectrophotometrically. Test compounds were administered 30 minutes (in case of intraperitoneal injection) or one hour (in case of oral administration) before the challenge with the antigen.
The data of the references: disodium chromoglycate (SDCG) and Tranilast are also shown therein.

[4] abbreviates: ip, 30 minutes before the challenge with the antigen.
[5] abbreviates: po, 1 h, p.o., one hour before the challenge with the antigen.

Where two headings read alike, the source gives them in different places. Bounds are passed on as bounds.

The term LD50 denotes the dose at which mortality reaches 50%. Usually ED50 stands for the dose at which the effect has come halfway, by size or by number of responders. Turning to `CCCOc1ccccc1Nc1ncc(C(=O)O)c(=O)[nH]1` [Example 49, 1,6-dihydro-2-(2-propoxyanilino)-6-oxo-5-pyrimidinecarboxylic acid], the IC50 in the data set on SRS-A was found to be 487 µM. Moreover, the Inhibition rate with SRS-A (test compd. 3 × 10^-4 M) is given as 17.9%; in the data set with SRS-A (test compd. 10^-3 M), 97.3%; with SRS-A (test compd. 10^-4 M), 8.1%. In addition, the LD50 at 168 h is 1160 mg/kg in data set [1] and > 3000 mg/kg in data set [2]. The results for the ED50 in data set [3] (setting [4]) and in data set [3] (setting [5]) were 11 mg/kg and 22.2 mg/kg, respectively.

For the compound `CC(C)COc1ccccc1Nc1ncc(C(=O)O)c(=O)[nH]1` [Example 52, 1,6-dihydro-2-[2-(2-methylpropoxy)anilino]-6-oxo-5-pyrimidinecarboxylic acid], in the data set with SRS-A, the IC50 worked out at 154 µM. Further, the Inhibition rate in the data set on SRS-A (test compd. 3 × 10^-4 M) amounted to 87.9%; in the data set with SRS-A (test compd. 3 × 10^-5 M), 12.2%; with SRS-A (test compd. 10^-4 M), 26.2%. Further, the LD50 at 168 h is 780 mg/kg in data set [1] and > 3000 mg/kg in data set [2]. In addition, the ED50 was determined as 4.7 mg/kg in data set [3] (setting [4]) and 39 mg/kg in data set [3] (setting [5]).

In the case of `CC(C)Oc1ccccc1Nc1ncc(C(=O)O)c(=O)[nH]1` [Example 50, 1,6-dihydro-2-[b 2-(1-methylethoxy)anilino]-6-oxo-5-pyrimidinecarboxylic acid], the ED50 in data set [3] (setting [4]) was found to be 13 mg/kg; in data set [3] (setting [5]), 75 mg/kg.

As to `CCCCOc1ccccc1Nc1ncc(C(=O)O)c(=O)[nH]1` [Example 51, 1,6-dihydro-2-(2-butoxyanilino)-6-oxo-5-pyrimidinecarboxylic acid], the values for the LD50 at 168 h in data set [1] and in data set [2] were 1230 mg/kg and > 3000 mg/kg, respectively. Moreover, the 50% effective dose (ED50) in data set [3] (setting [4]) turned out to be 10.7 mg/kg; in data set [3] (setting [5]), 92 mg/kg.

As for `O=C(O)c1cc(=O)c2c(OCC(O)COc3cccc4oc(C(=O)O)cc(=O)c34)cccc2o1` [DSCG, disodium chromoglycate, reference compound], in the data set on SRS-A, the IC50 was > 1000 µM. In the data set on SRS-A (test compd. 10^-3 M), this compound registered an Inhibition rate of 6%. Besides, the ED50 in data set [3] (setting [4]) is 3.3 mg/kg; in data set [3] (setting [5]), > 200 mg/kg.

For the compound `COc1ccc(/C=C/C(=O)Nc2ccccc2C(=O)O)cc1OC` [Tranilast, reference compound], in the data set on SRS-A, the IC50 is > 1000 µM. Further, the Inhibition rate was 32.4% in the data set with SRS-A (test compd. 3 × 10^-4 M), 48.2% in the data set on SRS-A (test compd. 10^-3 M) and 23.5% in the data set with SRS-A (test compd. 10^-4 M). The LD50 at 168 h in data set [1] is 430 mg/kg; in data set [2], 780 mg/kg. For the same compound, the 50% effective dose (ED50) in data set [3] (setting [4]) came out at 40 mg/kg; in data set [3] (setting [5]), 110 mg/kg.

Take `CCOc1ccccc1Nc1ncc(C(=O)O)c(=O)[nH]1` [Example 48, 1,6-dihydro-2-(2-ethoxyanilino)-6-oxo-5-pyrimidinecarboxylic acid]: the LD50 at 168 h was > 500 mg/kg in data set [1] and > 3000 mg/kg in data set [2]. Besides, the ED50 came to 20.2 mg/kg in data set [3] (setting [4]) and 98 mg/kg in data set [3] (setting [5]).
